According to patent US10590383B2, “Methods for differentiating pluripotent cells” (FUJIFILM Cellular Dynamics, Inc., priority 2016, dated 2020):
Entries after “also recorded” stand apart in the source; their conditions may differ.

Assays:
[1] = tested on: human induced pluripotent stem cell (iPS) cell lines; assay: mDA progenitor patterning on process day 17 (FoxA2 by flow cytometry, FoxA2/Lmx1 co-expression by ICC); type: cell-based; details: for percentage of mDA progenitors induced (FoxA2 / FoxA2+Lmx1 cells) / use in mono-SMAD inhibition methods to produce midbrain dopaminergic neurons from iPS cells: single SMAD inhibitor; for percentage of mDA progenitors induced (FoxA2 / FoxA2+Lmx1 cells): alternate patterning conditions, multiple iPSC lines, process day 17
Experimental: Midbrain neuronal differentiation of human induced pluripotent stem cell (iPS) cell lines expanded on VTN-TN in Essential 8 medium was performed with small molecule and growth factor induction using a variety of differentiation media compositions and schedules as detailed in Tables 1-5. Generally, the iPS cells were cultured in D1 DA Neuron Induction Medium on Day 1, D2 Neuron Induction Medium on Day 2, and D3-D4 DA Induction Medium on Day 3 and 4. On Day 5, the cells were dissociated with TrypLE for 15 minutes and collected in DA Quench Medium before transferring the cells to a spinner flask suspension culture to form aggregates in D5 DA Neuron Aggregate Formation Medium.
On Day 6, the aggregates were settled, about 66% of the medium was removed, and the aggregates were fed DA Neuron Induction Medium. On Days 7-16, the aggregates were fed daily with DA Neuron Aggregate Maintenance Medium, and the medium was changed on Day 11 through 16. On Day 17, aggregates were dissociated to a single-cell suspension with TrypLE and plated onto Matrigel in D17 DA Neuron Aggregate Plating Medium. On Days 18, 20, 22 the medium was replaced with DopaNeuron Maturation Medium. On Day 24, the cells were dissociated using Accutase and plated in DA Neuron Maturation Plating Medium. The next day, the medium was replaced with DopaNeuron Maturation Medium.
The iCell DopaNeurons process was optimized with most progenitor patterning factors added starting on day 1. This includes factors for neuralization (dual-SMADi), sonic hedgehog signaling (Shh, PMN), and Wnt signaling (CHIR). […] A large number of optimization experiments were carried out across several iPSC lines to define conditions for efficient mono-SMADi mDA progenitor patterning, varying the timing and dose of all patterning factors. […] In the alternate (ALT) method, the SHH/Purmophamine addition was moved from Day 1 to Day 2. The changes utilized in this improvement included: (i) staggering the addition of the Wnt agonist (CHIR) to day 2 or day 3, (ii) re-optimizing the CHIR concentration, as this is dependent on the time it is first added, and (iii) moving the window where PD03 is added, as the optimal window depends on when CHIR is added. The end result was a narrow set of conditions that led to highly-efficient mDA progenitor formation in multiple iPS cell lines. Approximately half of the iPSC lines tested were able to generate mDA progenitors using mono-SMADi conditions.
FoxA2/Lmx1 coexpression is the most accurate marker for mDA progenitor cells. The use of alternate patterning conditions allows for efficient mDA progenitor patterning in the context of mono-SMAD inhibition (“Mono/Alternate”), whereas the standard patterning conditions have poor mDA progenitor patterning in the context of mono-SMAD inhibition (“Mono/Standard”). Control differentiations using dual-SMADi and standard patterning conditions (“Dual/Standard”) are shown for comparison.
Once an alternate patterning condition was identified that allowed for successful differentiation using mono-SMAD inhibition (Condition 1, i.e., Table 4: Alternate, LDN at 200 nM), the method was refined using a matrix of conditions, including the concentration of CHIR, and the treatment windows for Shh signaling, Wnt signaling, and MEK inhibition. […] Tyrosine hydroxylase (TH) expression is low in immature mDA neurons.
Different inhibitors were tested for function in mono-SMADi methods, as follows. The iCell DopaNeurons process induces neuralization using LDN-193189, an inhibitor of BMP signaling (inhibits ALK 1/2/3/6, blocks SMAD 1/5/8), and SB-431542, an inhibitor of TGF-b signaling (inhibits ALK 4/5/7, blocks SMAD 2/3). Together, this is referred to as “dual SMAD inhibition”, or “dual SMADi.” To define optimal conditions for neuralization using only a single SMAD inhibitor in the mDA process, various analogs of LDN-193189 and SB-431542 were screened across multiple iPS cell lines using the alternate patterning conditions described above. […]

[2] = tested on: dividing cells / post-mitotic mDA neurons; assay: In-process purification of mDA neurons with mitomycin C (neuron purity MAP2+/nestin-, day 37); type: cell-based, human; details: chemo drug selection, no selection gave 44%
Text: In-Process Purification of mDA Neurons: Even with efficient mDA progenitor patterning, there is a population of cells that continues to proliferate even after the maturing mDA neurons leave the cell cycle (approximately day 25). […] Intermediate doses given for intermediate times could also be used to achieve a similar effect.

iPSC-derived mDA neurons = assay: Marker characterization at process completion, day 37 (MAP2/nestin, FoxA2, TH); type: cell-based, human; details: 2 μM LDN versus 200 nM, Condition 7, iPSC line K
Text: On Day 31, the cells were dissociated with Accutase and re-plated onto poly-L-ornithine (PLO)/Laminin-coated flasks in DA Neuron Maturation Plating Medium. Next, on Days 32, 34, and 36, the cells were fed DopaNeuron Maturation Medium. On Day 37 or 38, the cells were again dissociated with Accutase and subjected to analysis or cryopreserved for later use.
Three iPSC lines (C, K, and H) are shown as examples of successful differentiations taken to process completion (day 37) (FIG. 5). The iPSC lines C, K, and H are iPSC lines (21526.101, 21534.101, and 21531.101, respectively). Data was obtained using the approach in Table 4 for Alternate LDN and Table 1 for Standard Dual control. Differentiation of the H line using dual-SMADi and the optimized standard patterning is shown for comparison. In each case, a high level of neuron purity was observed (>90% MAP2+/nestin−), and essentially all neurons co-express FoxA2. The inventors have observed that the vast majority of MAP2+/FoxA2+ cells at this stage also express Lmx1, and are therefore mDA neurons. The DA neuron phenotype was confirmed by the expression of tyrosine hydroxylase (TH) in the majority of neurons, a marker of more mature DA neurons. […]

[3] = biological target: TGF-β type 1 (ALK4/5/7) receptor signaling; details: read-out: IC50 for inhibition of TGF-β type 1 (ALK4/5/7) receptor signaling; cited from earlier work

In the case of `c1ccc(-c2[nH]ncc2-c2ccnc3ccccc23)nc1` [LY364947], the “percentage of mDA progenitors induced (FoxA2 / FoxA2+Lmx1 cells)” value (“percentage … (FoxA2 / FoxA2+Lmx1 cells)” below) [1] is reported as “did not outperform LDN”.

In the case of `CC(C)Oc1ccc(-c2cnc3c(-c4ccnc5ccccc45)cnn3c2)cc1` [DMH-1], the “use in mono-SMAD inhibition methods to produce midbrain dopaminergic neurons from iPS cells” value [1] is reported as “successfully used”.

For `Cc1cccc(-c2nn(C(=S)Nc3ccccc3)cc2-c2ccnc3ccccc23)n1` [A-83-01], the “percentage … (FoxA2 / FoxA2+Lmx1 cells)” value [1] was “did not outperform LDN”.

For `CO[C@@]12[C@H](COC(N)=O)C3=C(C(=O)C(C)=C(N)C3=O)N1C[C@@H]1N[C@@H]12` [MMC, mitomycin C], the “final neuron purity (MAP2+/nestin−)” value [2] was over 90%.

In the case of `c1ccc2c(-c3cnn4cc(-c5ccc(N6CCNCC6)cc5)cnc34)ccnc2c1` [LDN-193189], the “FoxA2 and Lmx1 expression levels in day 17 progenitors” value ([1]; 2 μM LDN versus 200 nM, Condition 7, iPSC line K, n=5 experiments) is reported as “higher FoxA2 and Lmx1 expression levels”, the “use in mono-SMAD inhibition methods to produce midbrain dopaminergic neurons from iPS cells” value [1] is reported as “successfully used” and the “percentage … (FoxA2 / FoxA2+Lmx1 cells)” value [1] is reported as “best overall at inducing the highest percentage of mDA progenitors; also recorded: most efficient at neutralizing mDA progenitors across multiple iPSC lines”. The “percentage of floor plate-derived neurons (FoxA2+) on process day 37” value (iPSC-derived mDA neurons) was “higher percentage of floor plate-derived neurons (FoxA2+)” and the IC50 [3] was over 500 nM.
